{"source": "patent US20250236596A1", "about": "“HYDROXYLAMINE-BASED EGFR INHIBITORS FOR TREATMENT OF CANCER WITH BRAIN METASTASES” (University of Georgia Research Foundation, Inc., priority 2022, published 2025)", "key": {"[1]": {"tested_on": "NCI-H1975 (EGFR L858R/T790M)", "experiment": "CellTiter-Glo viability assay, NCI-H1975", "format": "cell-based, human", "conditions": "72 h, result in words", "protocol": "The A431, HCC827, SK-BR-3, ZR-75-30, AU565 and Caco-2 cell lines were obtained from ATCC. The NCI-H1975 cell line was obtained from SIBS. The NCI-H3255 cell line was obtained from CoBioer. Engineered Ba/F3 cell lines were obtained from Crown Bioscience. MCKII-MDR1 cells were obtained from the Netherlands Cancer Institute. HEK293 cells were obtained from Invitrogen. A431 cells were cultured in DMEM (Life Technologies) with 10% FBS. HCC827, NCI-H1975 and AU565 cells were cultured in RPMI1640 (Invitrogen) with 10% FBS. NCI-H3255 cells were cultured in BEGM (Lonza) with 10% FBS. Ba/F3 EGFR-del E746_A750/C797S and Ba/F3 EGFR-L858R/C797S cells were cultured in RPMI (Invitrogen) with 10% FBS. SK-BR-3 cells were cultured in McCoy's 5a (Invitrogen) with 10% FBS. ZR-75-30 cells were cultured in RPMI1640 (Invitrogen) with 20% FBS. BT474 cells were cultured in DMEM (Gibco) with 10% FBS and 10 μg/mL Insulin. Caco-2 and MCKII-MDR1 culture information is given in the permeability studies section. […]\nViability assays using A431, HCC827, NCI-H1975, NCI-H3255, Ba/F3 EGFR-del E746_A750/C797S, Ba/F3 EGFR-L858R/C797S, AU565, SK-BR-3 and ZR-75-30 cells were performed at Crown BioScience. […] Dose-response curves were generated and used to calculate the IC50 values which were calculated on GraphPad Prism from the non-linear regression equation fitted with a sigmoidal dose response and are presented as the mean±SEM."}, "[2]": {"experiment": "Oral CNS pharmacokinetics in SD rats", "format": "in vivo", "conditions": "male, rat, brain and plasma, single oral dose 20 mg/kg, read-out: Kp,uu (unbound brain-to-unbound plasma partitioning coefficient) (AUCinf)", "protocol": "Animal experiments were performed at Pharmaron Inc. and animal use was approved by Pharmaron's Institutional Animal Care and Use Committee (IACUC) in Pharmaron (Pharmaron IACUC, Protocol #PK-M-07182022, #PK-R-06012022 and #ON-CELL-XEN-06012022) following the guidance of AAALAC. Six- to eight-week-old male SD rats (approximately 200-300 g) obtained from Si Bei Fu Laboratory Animal Technology Co., six- to eight-week-old male CD1 mice (approximately 20-30 g) obtained from Si Bei Fu Laboratory Animal Technology Co., and six- to eight-week-old female BALB/c nude mice (approximately 20-30 g) obtained from Si Bei Fu Laboratory Animal Technology Co., were used in the pharmacokinetic studies. Six- to eight-week-old female BALB/c nude mice (approximately 18-22 g) obtained from Beijing Anikeeper Biotech Co., Ltd were used in the intracranial PDX study. […]\nOral CNS pharmacokinetic assessment of 15 was done by oral gavage (formulation: 1% methylcellulose) followed by blood and brain sampling at 7 time points (0.25, 0.5, 1, 2, 4, 8, 24 h post dose) with n=3 animals per time point (n=21 total). […] Concentrations of 15 in the plasma and brain samples were determined using LC-MS/MS and WinNonlin 8.3 (Phoenix™) was used for pharmacokinetic calculations. […]"}, "[3]": {"tested_on": "HCC827-luc intracranial tumor", "experiment": "Intracranial PDX model with luciferase-tagged HCC827 cells", "format": "in vivo, BALB/c nude mice", "conditions": "10 mg/kg PO b.i.d", "protocol": "Animal experiments were performed at Pharmaron Inc. and animal use was approved by Pharmaron's Institutional Animal Care and Use Committee (IACUC) in Pharmaron (Pharmaron IACUC, Protocol #PK-M-07182022, #PK-R-06012022 and #ON-CELL-XEN-06012022) following the guidance of AAALAC. Six- to eight-week-old male SD rats (approximately 200-300 g) obtained from Si Bei Fu Laboratory Animal Technology Co., six- to eight-week-old male CD1 mice (approximately 20-30 g) obtained from Si Bei Fu Laboratory Animal Technology Co., and six- to eight-week-old female BALB/c nude mice (approximately 20-30 g) obtained from Si Bei Fu Laboratory Animal Technology Co., were used in the pharmacokinetic studies. Six- to eight-week-old female BALB/c nude mice (approximately 18-22 g) obtained from Beijing Anikeeper Biotech Co., Ltd were used in the intracranial PDX study. Animals were housed at 20-25° C. with humidity ranging from 40-70% relative humidity, were exposed to 12 h light and dark cycles, and were supplied with food and water ab libitum.\nHCC827 cells stably expressing luciferase (HCC827-luc) were injected intracranially. Briefly, 3×10^5 HCC827-luc tumor cells suspended in 2 μL RPMI1640 medium were injected into the right forebrain of anesthetized mice (anesthetic: intramuscular injection of Zoletl™ 50 (Virbac S.A)). Mice were imaged bi-weekly using IVIS Lumina Ill (Perkin Elmer). Images were acquired 10 min post intraperitoneal (IP) injection with 15 mg/mL (at 5 μL/g body weight) of D-luciferin in anesthetized mice (anesthetic: 1-2% isoflurane inhalation). On day 20 post-cellular inoculation, mice were randomized into 2 treatment groups (n=10 mice per group): 1) 1% methylcellulose as vehicle control and 2) 15 (10 mg/kg) (formulation: 1% methylcellulose), PO, b.i.d. (twice daily) dosing (12 h intervals)×7 days for 21 days. […] Body weights of all mice were measured bi-weekly throughout the study and BW change, expressed in % was calculated using the following formula.\nBW change (%)=(BWDay X/BWDay 0)×100\nWhere, BWDay X is the BW on a given day, and BWDay 0 is BW on Day 0 (initiation of treatment). […]"}}}
{"smiles": "COc1cc2ncnc(Nc3cccc(Cl)c3F)c2cc1OCCON1CCN(C)CC1", "note": "[Compound 15, N-(3-chloro-2-fluorophenyl)-7-methoxy-6-(2-((4-methylpiperazin-1-yl)oxy)ethoxy)quinazolin-4-amine]", "values": [{"measurement": "antiproliferative activity", "setting": "[1]", "value": "no activity"}, {"measurement": "Kp,uu (unbound brain-to-unbound plasma partition coefficient)", "setting": "[2]", "value": 0.33}, {"measurement": "mean body weight loss", "setting": "[3]; 21-day treatment window", "value": "≤ 10", "unit": "%"}, {"measurement": "adverse clinical events", "setting": "[3]; 21 days", "value": "no adverse clinical events"}, {"measurement": "intracranial tumor response (bioluminescence) relative to vehicle control", "setting": "[3]; 21 days, P=0.0059", "value": "profound tumor regression"}]}
